For one assay, the system named is L02. The assay is described as follows: Cytotoxicity against human L02 cells assessed as reduction in cell proliferation measured after 72 hrs by MTT assay. Particulars: L02, 72 h. It counts as cell-based.
Assay [1] can be described thus: Antiproliferative activity against human HCCLM3 cells assessed as reduction in cell proliferation measured after 72 hrs by MTT assay. The class given is functional, cell-based. Conditions: HCCLM3, 72 h.
Assay [2] concerns HepG2. The assay is described as follows: Antiproliferative activity against human HepG2 cells assessed as reduction in cell proliferation measured after 72 hrs by MTT assay. The class given is functional, cell-based. Conditions: HepG2, 72 h.
Assay [3] has as its system HepG2. The assay is described as follows: Reduction in SIRT2 expression in human HepG2 cells measured after 72 hrs by Western blot analysis. It counts as functional, cell-based. Conditions: dose microM 5-30, time 72.0 hrs.
Assay [4] has as its system HepG2. The assay is described as follows: Reduction in SIRT2 expression in human HepG2 cells at 15 uM by Western blot analysis. It counts as functional, cell-based. Particulars: time hrs 24-72, TDE = time-dependent effect.
Assay [5] has as its system HepG2. The assay is described as follows: Cell cycle arrest in human HepG2 cells assessed as accumulation at subG1 phase at 5 uM measured after 72 hrs by FACS based flow cytometry analysis (reference value: 4 %). It counts as functional.
Assay [6] deals with HepG2. Nature of the assay: Cell cycle arrest in human HepG2 cells assessed as accumulation at subG1 phase at 15 uM measured after 72 hrs by FACS based flow cytometry analysis (reference value: 4 %). It counts as functional.
In assay [7] the test system is HepG2. Nature of the assay: Cell cycle arrest in human HepG2 cells assessed as accumulation at subG1 phase at 30 uM measured after 72 hrs by FACS based flow cytometry analysis (reference value: 4 %). It counts as functional.
In assay [8] the test system is HepG2. Nature of the assay: Cell cycle arrest in human HepG2 cells assessed as accumulation at subG1 phase at 15 uM measured after 24 hrs by FACS based flow cytometry analysis (reference value: 3 %). The class given is functional.
Assay [9] concerns HepG2. Nature of the assay: Cell cycle arrest in human HepG2 cells assessed as accumulation at subG1 phase at 15 uM measured after 48 hrs by FACS based flow cytometry analysis (reference value: 3 %). It counts as functional.
For assay [10], the system named is HepG2. The assay is described as follows: Cell cycle arrest in human HepG2 cells assessed as accumulation at subG1 phase at 15 uM measured after 72 hrs by FACS based flow cytometry analysis (reference value: 3 %). It counts as functional.

Where only a bound is given, the exact number is not on record here.

Turning to `Cn1nc(-c2nnc(-c3ccc(Br)cc3)o2)c2ccccc21`, the IC50 in the assay on L02 is > 100 µM; in [1], > 100 µM; in the assay on HepG2 [2] it was 40 µM.

Regarding `Cn1nc(-c2nnc(-c3ccccc3Cl)o2)c2ccccc21`, the IC50 in the assay with L02 was > 100 µM; in assay [1], > 100 µM; in the assay with HepG2 [2], 45 µM.

On to `Cn1nc(-c2nnc(-c3cccc(Br)c3)o2)c2ccccc21`, for which the results for the 50% inhibitory concentration (IC50) (in the assay with L02; in assay [1]; in the assay on HepG2 [2]) were > 100 µM, > 100 µM and 24.5 µM, respectively.

With `Cn1nc(-c2nnc(-c3ccccc3Br)o2)c2ccccc21`, the IC50 is 89 µM in the assay with L02, > 100 µM in assay [1] and 22.3 µM in the assay with HepG2 [2].

Regarding `Cn1nc(-c2nnc(-c3ccccc3)o2)c2ccccc21`, the IC50 in the assay with L02 is 84.6 µM; in assay [1], 100 µM; in the assay on HepG2 [2], 37.5 µM.

Take `Cc1cccc(-c2nnc(-c3nn(C)c4ccccc34)o2)c1`: the figures for the IC50 (in the assay on L02; in assay [1]; in the assay on HepG2 [2]) were > 100 µM, > 100 µM and 60 µM, respectively.

As for `COc1ccc(-c2nnc(-c3nn(C)c4ccccc34)o2)cc1`, the IC50 was > 100 µM with L02, > 100 µM in assay [1] and 19.5 µM in the assay with HepG2 [2]. Besides, the inhibition entry with HepG2 [3] is “Dose-dependent effect”; in the assay with HepG2 [4], “Tde”. Further, the Activity in the assay with HepG2 [5] is on record as 10%; in the assay on HepG2 [6] it was 41%; in the assay with HepG2 [7] it was 55%; with HepG2 [8], 10%; with HepG2 [9] it was 45%; with HepG2 [10] it was 55%.

For the molecule `Cc1ccc(C(=O)Nc2ccc(S(=O)(=O)O)c3cc(S(=O)(=O)O)cc(S(=O)(=O)O)c23)cc1NC(=O)c1cccc(NC(=O)Nc2cccc(C(=O)Nc3cc(C(=O)Nc4ccc(S(=O)(=O)O)c5cc(S(=O)(=O)O)cc(S(=O)(=O)O)c45)ccc3C)c2)c1` [SURAMIN], in the assay on HepG2 [2], the IC50 was 67.4 µM.

Turning to `CC(=O)O[C@H]1C(=O)[C@@]2(C)[C@H]([C@H](OC(=O)c3ccccc3)[C@]3(O)C[C@H](OC(=O)[C@H](O)[C@@H](NC(=O)c4ccccc4)c4ccccc4)C(C)=C1C3(C)C)[C@]1(OC(C)=O)CO[C@@H]1C[C@@H]2O` [PACLITAXEL], the IC50 in the assay on HepG2 [2] is 3.9 µM.

Take `Cc1ccc(-c2nnc(-c3nn(C)c4ccccc34)o2)cc1`: the values for the IC50 (in the assay with L02; in assay [1]; in the assay with HepG2 [2]) were > 100 µM, > 100 µM and 38.7 µM, respectively.

For `Cn1nc(-c2nnc(-c3cccc(Cl)c3)o2)c2ccccc21`, the 50% inhibitory concentration (IC50) in the assay with L02 was > 100 µM; in assay [1] it was > 100 µM; in the assay with HepG2 [2] it was 21.4 µM.

Turning to `Cn1nc(-c2nnc(-c3ccc(Cl)cc3)o2)c2ccccc21`, the results for the IC50 (in the assay with L02; in assay [1]; in the assay on HepG2 [2]) were > 100 µM, > 100 µM and 42 µM, respectively.

With `Cn1nc(-c2nnc(-c3ccc(O)cc3)o2)c2ccccc21`, the figures for the IC50 (with L02; in [1]; with HepG2 [2]) were > 100 µM, > 100 µM and 86.4 µM, respectively.

For the origin of these results see ChEMBL document CHEMBL4725269, “Exploring the newer oxadiazoles as real inhibitors of human SIRT2 in hepatocellular cancer cells” (Bioorg Med Chem Lett, 2020).
